Results as given in patent publication US20110237633A1, “SMALL MOLECULE MODULATORS OF HEPATOCYTE GROWTH FACTOR (SCATTER FACTOR) ACTIVITY” (priority 2008, published 2011).

Tested on: MDCK cells
Test: not given
Settings: not given

Row | Compound | cell viability after pretreatment, then adriamycin
1 | HGF: Scatter factor / hepatocyte growth factor, pleiotropic growth factor used as positive control | 94%

Tested on: Endothelial cells (HUVECs)
Test: Assessment of HGF/SF-like activity: HUVEC proliferation (3H thymidine incorporation / Cell titer Glo)
Type: cell-based, human
Settings: test compounds 10 μM (or 0.01 to 25 micromolar), 24 hr; growth compared to 50 ng/mL HGF control
Procedure: 1. Assessment of HGF/SF-like activity: The following assay is performed to assess the HGF/SF-like activity of the compounds of the invention. Endothelial cells (HUVECs) are seeded in 48 well plates at a density of 10,000 to 20,000 cells per well in the normal growth medium (EGM-2-Clonetics) containing 2% fetal bovine serum, FGF, VEGF, IGF, ascorbic acid, EGF, GA, heparin and hydrocortisone. The cells are grown normally in the growth medium for 24 hr at 37° C. and 5% CO2. The cells are then rinsed with RPMI-1% BSA and are starved for 1-2 hrs. The stock solutions of the compounds of the invention are made at a concentration of 10 mg/ml in DMSO and are diluted in RPMI-1% BSA at a final concentrations of 0.01 micromolar to 25 micromolar. The cells are then washed and are treated with the compounds and are incubated for another 24 hr at 37° C. Then ^3H thymidine (0.5 microgram/ml in RPMI-BSA) is added to the cells and they are incubated at 37° C. for 4 to 5 hours. The unincorporated thymidine is removed by washing the cells four times with 1×PBS. Then the cells are lysed with 0.5M NaOH for 30 min and the radioactivity is counted in the beta counter. A similar proliferation assay using monkey bronchial epithelial cells (4 MBR-5) is also employed.
In another assay format, HUVEC cells were grown in EGM-2 medium (Lonza) with 5% FBS to 80% confluence at 37° C. and in 5% CO2. Cells were plated in a white opaque flat bottom 96 well plate at a density of 10000 cells per well and in a volume of 100 μL, and incubated overnight and starved by washing twice in serum-free EGM-2 media. After 2 hours, cells were treated with 100 μL EGM-2 medium containing 10 μM test compounds and incubated for an additional 24 hours at 37° C. (All compounds were in DMSO and the final concentration of DMSO in the assay was 0.1%). In all experiments, serum (5%) and HGF (50 ng/mL final) were run as positive controls and DMSO vehicle was run as a negative control. 10 μL Cell titer Glo reagent (Promega) was added to each well and plates were mixed by gentle tapping. After 10 minutes at room temperature, plates were read on a Packard Top Count Luminescence plate reader. Proliferation was expressed as a percentage of growth compared to 50 ng/mL HGF control, with the DMSO control representing 0% growth and the HGF control representing 100% growth.

Row | Compound | HGF/SF-like activity (HUVEC proliferation)
2 | C(=Cc1nnn[nH]1)c1ccccc1 [5-styryl-1H-tetrazole] | active
3 | C(=Cc1cnc[nH]1)c1ccccc1 [5-styryl-1H-imidazole] | active
4 | c1ccc2cc(-c3ncc[nH]3)ccc2c1 [2-(naphthalen-2-yl)-1H-imidazole] | active
5 | c1coc(-c2ccc3cn[nH]c3c2)c1 [6-(furan-2-yl)-1H-indazole] | active
6 | Nc1nnc(C=Cc2ccccc2)[nH]1 [5-styryl-4H-1,2,4-triazol-3-amine] | active
7 | CCn1c(C)nc2cc(-c3ccccc3)ccc21 [1-ethyl-2-methyl-5-phenyl-1H-benzo[d]imidazole] | active
8 | c1csc(-c2ccc3cn[nH]c3c2)c1 [6-(thiophen-2-yl)-1H-indazole] | active
9 | Nc1ccc(C=Cc2nc3cc(N)ccc3[nH]2)cc1 [2-(4-aminostyryl)-1H-benzo[d]imidazol-5-amine] | active
10 | C(=Cc1cccs1)c1ccc[nH]1 [2-(2-(thiophen-2-yl)vinyl)-1H-pyrrole] | active
11 | CC(C)N1CC(c2nc(-c3ccc4ccccc4c3)c[nH]2)CC1=O (centres unmarked) [1-isopropyl-4-(4-(naphthalen-2-yl)-1H-imidazol-2-yl)pyrrolidin-2-one] | active
12 | CS(=O)(=O)Nc1ccc(-c2ccc3nc[nH]c3c2)cc1 [N-(4-(1H-benzo[d]imidazol-6-yl)phenyl)methanesulfonamide] | active
13 | CSc1nnc(C=Cc2cccs2)[nH]1 [3-(methylthio)-5-(2-(thiophen-2-yl)vinyl)-4H-1,2,4-triazole] | active
14 | c1cc(-c2ccc3cn[nH]c3c2)cs1 [6-(thiophen-3-yl)-1H-indazole] | active
15 | c1ccc2cc(-c3cnc[nH]3)ccc2c1 [5-(naphthalen-2-yl)-1H-imidazole] | active
16 | c1cc(-c2ccc3cn[nH]c3c2)co1 [6-(furan-3-yl)-1H-indazole] | active
17 | c1ccc2cc(-c3nnn[nH]3)ccc2c1 [5-(naphthalen-2-yl)-1H-tetrazole] | active
18 | C(=Cc1ncc[nH]1)c1ccccc1 [2-styryl-1H-imidazole] | active

Tested on: LX2 cells (collagen I mRNA)
Test: Antifibrotic activity: collagen I mRNA by real time PCR in LX2 hepatic stellate cells
Type: cell-based, human
Settings: serum starved LX2 cells, 24 hours, HGF 100 ng/ml
Procedure: 2. Antifibrotic Activity of HGF and compounds of the invention in vitro and in vivo. The antifibrotic effects of HGF and compounds of the invention in the immortalized human hepatic stellate cell line LX2 are determined. Serum starved LX2 cells are treated for 24 hours with HGF at 100 ng/ml and compounds of the invention at doses ranging from 12 to 24 ug/ml. RNA is then isolated and real time PCR is performed to evaluate changes in collagen I mRNA. Results typically indicate a 90% and 70% decrease in collagen I mRNA expression in cells treated with instant compounds and HGF, respectively. Additional experiments to determine the effects of HGF and compounds on TGFb-1, bPDGF-R and MMP-1 mRNA are also performed to more completely characterize activities of these compounds which can contribute to their antifibrotic effects.

Row | Compound | decrease in collagen I mRNA expression
19 | HGF: Scatter factor / hepatocyte growth factor, pleiotropic growth factor used as positive control | 70%

Tested on: not listed separately
Test: MTT cell viability assay, protection from adriamycin-induced apoptosis
Settings: dog, MDCK cells
Procedure: Using the MTT cell viability assay the ability of compounds of the invention to protect cells from adriamycin-induced apoptosis is tested.

Row | Compound | viability
20 | COc1cccc2c1C(=O)c1c(O)c3c(c(O)c1C2=O)C[C@@](O)(C(=O)CO)C[C@@H]3O[C@H]1C[C@H](N)[C@H](O)[C@H](C)O1 [Adriamycin, adriamycin] | 56%
